This assay relates to HeLa. Put plainly: Photocytotoxicity against human HeLa cells assessed as survival-fraction per unit uptake measured as concentration in incubation medium necessary to produce cell uptake of 0.3 nmol per mg of protein at which survival fraction was determined after 24 hrs in presence of 10 J/cm2 light. The assay is classed as functional.
On to `CC1(C)Cc2cc3[nH]c(cc4nc(cc5[nH]c(cc1n2)cc5C(=O)O)CC4(C)C)cc3C(=O)O`, for which the survival fraction came out at 0.35.

For `CC1(C)Cc2cc3[nH]c(cc4nc(cc5[nH]c(cc1n2)cc5C(=O)NCCN)CC4(C)C)cc3C(=O)NCCN`, the survival fraction is 0.88.

With `CC1(C)Cc2cc3[nH]c(cc4nc(cc5[nH]c(cc1n2)cc5CN(CCO)CCO)CC4(C)C)cc3CN(CCO)CCO`, the survival fraction was determined as 0.04.

Consider `COCCOCCOCCOCCNCc1cc(CNCCOCCOCCOCCOC)cc(-c2c3nc(cc4[nH]c(cc4-c4ccc(C)cc4)c(OC)c4nc(cc5[nH]c2cc5-c2ccc(C)cc2)C(C)(C)C4)C(C)(C)C3)c1`, for which the survival fraction was found to be 0.1.

`CC1(C)Cc2cc3[nH]c(cc4nc(cc5[nH]c(cc1n2)cc5-c1cc(OCCO)cc(OCCO)c1)CC4(C)C)cc3-c1cc(OCCO)cc(OCCO)c1`: the survival fraction stood at 0.001.

Take `CC1(C)Cc2cc3[nH]c(cc4nc(cc5[nH]c(cc1n2)cc5-c1cc(O)cc(O)c1)CC4(C)C)cc3-c1cc(O)cc(O)c1`: the survival fraction was determined as 0.01.

Consider `CC1(C)Cc2cc3[nH]c(cc4nc(cc5[nH]c(cc1n2)cc5C#CC[N+](C)(C)C)CC4(C)C)cc3C#CC[N+](C)(C)C.[Cl-].[Cl-]`, for which the survival fraction turned out to be 0.6.

As for `CC1(C)Cc2cc3[nH]c(cc4nc(cc5[nH]c(cc1n2)cc5C(=O)N(CCN)CCN)CC4(C)C)cc3C(=O)N(CCN)CCN`, the survival fraction is 0.9.

Consider `CC1(C)Cc2cc3[nH]c(cc4nc(cc5[nH]c(cc1n2)cc5C(=O)N1CC[N+](C)(C)CC1)CC4(C)C)cc3C(=O)N1CC[N+](C)(C)CC1.[Cl-].[Cl-]`, for which the survival fraction stood at 1.

On to `CC1(C)Cc2cc3[nH]c(cc4nc(cc5[nH]c(cc1n2)cc5C(=O)/C=C/c1cc(O)cc(O)c1)CC4(C)C)cc3C(=O)/C=C/c1cc(O)cc(O)c1`, for which the survival fraction amounted to 0.23.

Take `COCCN(CCOC)C(=O)c1cc2cc3nc(cc4[nH]c(cc5nc(cc1[nH]2)CC5(C)C)cc4C(=O)N(CCOC)CCOC)CC3(C)C`: the survival fraction came to 0.02.

(Values after ChEMBL document CHEMBL1157821, “In vitro photodynamic therapy and quantitative structure-activity relationship studies with stable synthetic near-infrared-absorbing bacteriochlorin photosensitizers” (J Med Chem, 2010).)
